Source: US9522377B2, “Method for improving the properties of amphiphile particles” (CAMURUS AB, priority 2003, dated 2016)

Legend:
[1] = for influence of drug on properties of the dispersions: 0.3% drug, GMOrphic/12% P407, non-autoclaved and autoclaved; for effect on lattice constant of cubic phase, autoclaved dispersions / effect on particle size of autoclaved dispersions: autoclaved 121° C., 15+5 min; for influence on non-autoclaved dispersions: chloramphenicol 0.3, 1 and 2%, miconazole 0.3 and 1%
Procedure: All drug concentrations are indicated relative to the sum of monoglyceride and poloxamer. A drug-free dispersion was prepared and investigated as a reference.
All dispersions were autoclaved at 121° C. for 15+5 min. (allowing for temperature equilibration in the autoclave) and their properties were compared to that of the corresponding non-autoclaved dispersions.

[2] = Active agent loading of cubic particles; assay type: physicochemical
Procedure: To the dispersions is added the cationic peptide desmopressin to a concentration of 1 mg/ml. The dispersion is allowed to equilibrate for 60 minutes at room temperature and reanalyzed for particle size and optionally phase behaviour. The particle size is not affected as determined using laser diffraction.
A dispersion of cubic particles of formulation GMO/OA/F-127 (84.5:4.5:10) was prepared as in Example 24. The steroid hormone progesterone was incubated with the cubic particles at room temperature as described for desmopressin in Example 22. The equilibrium loading level was 3% by weight.
The above method was repeated by the active agent progesterone was included in the aqueous phase prior to the homogenisation and heat treatment steps. The loading level was again examined and established to be 18 wt %. The effect upon the particle size distribution was minimal.

SMILES	influence of drug on properties of the dispersions [1]	effect on lattice constant of cubic phase, autoclaved dispersions [1]	effect on particle size of autoclaved dispersions [1]	influence on non-autoclaved dispersions [1]	also measured
COC1=C(OC)C(=O)C(C/C=C(\C)CC/C=C(\C)CC/C=C(\C)CC/C=C(\C)CC/C=C(\C)CC/C=C(\C)CC/C=C(\C)CC/C=C(\C)CC/C=C(\C)CCC=C(C)C)=C(C)C1=O [Ubidecarenone, ubidecarenone]	did not influence the properties of the resulting dispersions				
CCCCC(=O)O[C@]1(C(=O)CO)[C@@H](C)C[C@H]2[C@@H]3CCC4=CC(=O)C=C[C@]4(C)[C@@]3(F)[C@@H](O)C[C@@]21C [betamethasone-17-valerate]					influence of drug on general behaviour of the dispersions ([1]; 0.3, 1 or 2% drug): no influence on the general behaviour of the dispersions
O=C(N[C@H](CO)[C@H](O)c1ccc([N+](=O)[O-])cc1)C(Cl)Cl [chloramphenicol]		slight increase in lattice constant	particle sizes increased distinctly with drug concentration	no influence on the non-autoclaved dispersions	
Clc1ccc(COC(Cn2ccnc2)c2ccc(Cl)cc2Cl)c(Cl)c1 (centres unmarked) [miconazole]		decreased slightly	slightly larger (0.3%) and distinctly larger (1%) particle sizes	no influence on the non-autoclaved dispersions	
CC(=O)[C@H]1CC[C@H]2[C@@H]3CCC4=CC(=O)CC[C@]4(C)[C@H]3CC[C@]12C [progesterone]					loading level ([2]; included in aqueous phase prior to homogenisation and heat treatment, GMO/OA/F-127 (84.5:4.5:10)): 18 wt %; equilibrium loading level ([2]; incubated with GMO/OA/F-127 (84.5:4.5:10) cubic particles at room temperature): 3 % by weight
CC(=O)Oc1c(C)c(C)c2c(c1C)CCC(C)(CCC[C@H](C)CCC[C@H](C)CCCC(C)C)O2 (some centres unmarked) [tocopherol acetate]	did not influence the properties of the resulting dispersions				
